Assay results reported in US20230312587A1, “PTERIDINONE COMPOUNDS AND USES THEREOF” (Vertex Pharmaceutical Incorporated, priority 2018, published 2023).

Tests used:
Assay type in all cases: cell-based
HepG2 XBP1(u)-Luc cells = experiment: HepG2 XBP1 reporter assay; details: Homo sapiens, 6 h
Summary of the method: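 Reporter cells are HepG2 stably carrying unspliced XBP1 fused to firefly luciferase, which becomes in-frame after IRE1alpha-mediated splicing. SteadyGlo luminescence was normalized to DMSO-treated cells for IC50 calculation.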

HepG2 parental = experiment: In vitro cell viability (CellTiter-Glo), HepG2 parental; details: Homo sapiens, 96 hours, read-out: HepG2 viability
Method: (§1) HEK293 cells containing empty pCLPCx vector (HEK293 empty), HEK293 cells stably over-expression WFS1 (HEK293 WFS1), HepG2, and HepG2 cells where WFS1 was depleted via CRISPR/Cas9 (HepG2 WFS1 KO) cells were plated into 96-well black plates (Corning, product #3904) in 100 microliters of complete DMEM cell culture media [DMEM (Life Technologies, product #11960-051) media supplemented with 10% FBS (Hyclone, catalog #SH30071.03), antimycotic/antibiotic (Life Technologies, product #15240-062), and Glutamax (Life Technologies, product #35050-061)] at 1,000 (HEK293) or 5,000 (HepG2) cells per well. Cells were allowed to attach and grow overnight, after which compounds are added at various concentrations. Cell viability was assessed 96 hrs after compound addition with CellTiter-Glo reagent (Promega, catalog #G7570) according to manufacturer's protocol and measurement on a Pherastar luminescence plate reader (BMG Labtech).
To determine the effect of WFS1 depletion on compound mediated inhibition of cell viability, parental HepG2 cells and HepG2 cells where WFS1 was deleted by CRISPR/Cas9 were exposed to increasing concentrations of either Compound 136 or Compound 253 for 96 hours after which time viability was determined using Cell Titer Glo reagent (Promega). […] The IC50s for the viability of both the HepG2 parental and WFS1 knockout cells are summarized in Table 47: A<0.5 μM; 0.5 μM≤<2.0 μM; 2.0 μM≤C<10.0 μM; D≥[…].

Hek293 empty vector = experiment: In vitro cell viability (CellTiter-Glo), Hek293 empty vector; details: Homo sapiens, HEK293; read-out: Hek293 empty vector viability
Method: HEK293 (ATCC, catalog #CRL-1573) cells are plated in 10 cm dishes (Corning, product #430167) into 10 mL of complete DMEM cell culture media [DMEM (Life Technologies, product #11960-051) media supplemented with 10% FBS (Hyclone, catalog #SH30071.03), antimycotic/antibiotic (Life Technologies, product #15240-062), and Glutamax (Life Technologies, product #35050-061)] at 3×10^6 cells per dish. Cells are allowed to attach and grow overnight at 37° C. in humidified 5% CO2. Cells are co-transfected with pVSV-G, pCMV-Gag/Pol and pCLPCX_WFS1 using Fugene 6 (Promega, catalog #E2691) according to manufacturer's protocol. Separately, cells are co-transfected with pVSV-G, pCMV-Gag/Pol and pCLPCX to produce control retrovirus. Cell culture media containing retrovirus (viral supernatant) is collected at 48 and 72 hours following transfection, filtered through a 0.4 uM filter, and stored at −80° C.
HEK293 cells are plated in 6 well plates (Corning, product #3516) in 2 mL of complete DMEM cell culture media at 1×10^5 cells well and allowed to attach and grow overnight at 37° C. in humidified 5% CO2. The following day, the media is replaced with viral supernatant to which 10 ug/ml of Polybrene® (Santa Cruz Biotech, catalog #sc-134220) is added. Viral supernatant is replaced 24 hours later with complete DMEM media. Transduced cells are selected in complete DMEM cell culture media containing 1 microgram/mL of puromycin (Life Technologies, catalog #A1113803).
as §1
The IC50s for the viability of both the Hek293 empty vector and WFS1 over-expressing cells are summarized in Table 47: A<0.06 μM; 0.06 μM≤B<0.6 μM; 0.6 μM≤C<3.0 μM; D≥3.0 μM.

SMILES	IC50 (HepG2 XBP1(u)-Luc cells)	IC50 (HepG2 parental)	IC50 (Hek293 empty vector)
Cc1nc(NCc2cnn(CC(C)(O)c3ccc(F)cc3)c2)nc2c1NC(=O)[C@H](C)N2C (stereo partly drawn) [Compound 128, (7S)-2-(((1-(2-(4-fluorophenyl)-2-hydroxypropyl)-1H-pyrazol-4-yl)methyl)amino)-4,7,8-trimethyl-7,8-dihydropteridin-6(5H)-one]	2000 to 10000 nM	2000 to 10000 nM	≥ 3000 nM
Cc1nc(NCc2cnn(CC3CCC3)c2)nc2c1N(C)C(=O)[C@H](C)N2C [Compound 7, (7S)-2-(((1-(cyclobutylmethyl)-1H-pyrazol-4-yl)methyl)amino)-4,5,7,8-tetramethyl-7,8-dihydropteridin-6(5H)-one]	600 to 2000 nM	2000 to 10000 nM	≥ 3000 nM
Cc1nc(NCc2cnn(Cc3ccc(C(F)(F)F)cc3)c2)nc2c1NC(=O)[C@H](C)N2C [Compound 149, (7S)-4,7,8-trimethyl-2-(((1-(4-(trifluoromethyl)benzyl)-1H-pyrazol-4-yl)methyl)amino)-7,8-dihydropteridin-6(5H)-one]	< 600 nM	< 500 nM	≥ 3000 nM
Cc1nc(N[C@H]2CC[C@H](n3ccc(C(F)(F)F)n3)C2)nc2c1NC(=O)[C@H](C)N2C (single isomer, unassigned) [Compound 310]	< 600 nM	≥ 10000 nM	≥ 3000 nM
Cc1nc(NCc2cnn(C3CCN(C(=O)c4ccc(F)cc4)CC3)c2)nc2c1NC(=O)[C@H](C)N2C [Compound 125, (7S)-2-(((1-(1-(4-Fluorobenzoyl)piperidin-4-yl)-1H-pyrazol-4-yl)methyl)amino)-4,7,8-trimethyl-7,8-dihydropteridin-6(5H)-one]	≥ 10000 nM	2000 to 10000 nM	≥ 3000 nM
Cc1nc(NCc2cnn(CCc3ccc(F)cc3)c2)nc2c1N(C)C(=O)[C@H](C)N2C [Compound 8, (7S)-2-(((1-(4-fluorophenethyl)-1H-pyrazol-4-yl)methyl)amino)-4,5,7,8-tetramethyl-7,8-dihydropteridin-6(5H)-one]	2000 to 10000 nM	2000 to 10000 nM	≥ 3000 nM
CN1C(=O)C(C)(C)N(C)c2nc(NCc3cnn(Cc4cccnc4C(F)(F)F)c3)ncc21 [Compound 237, 5,7,7,8-Tetramethyl-2-(((1-((2-(trifluoromethyl)pyridin-3-yl)methyl)-1H-pyrazol-4-yl)methyl)amino)-7,8-dihydropteridin-6(5H)-one]	600 to 2000 nM	≥ 10000 nM	≥ 3000 nM
Cc1nc(N[C@H]2C[C@H](Sc3ccc(F)cc3)C2)nc2c1N(C)C(=O)[C@H](C)N2C [Compound 307, (7S)-2-((trans-3-((4-fluorophenyl)thio)cyclobutyl)amino)-4,5,7,8-tetramethyl-7,8-dihydropteridin-6(5H)-one]	600 to 2000 nM	2000 to 10000 nM	≥ 3000 nM
Cc1nc(NCc2cnn(CCC3CCOCC3)c2)nc2c1NC(=O)[C@H](C)N2C [Compound 115, (7S)-4,7,8-trimethyl-2-(((1-(2-(tetrahydro-2H-pyran-4-yl)ethyl)-1H-pyrazol-4-yl)methyl)amino)-7,8-dihydropteridin-6(5H)-one]	≥ 10000 nM	≥ 10000 nM	≥ 3000 nM
Cc1nc(NCc2cnn(CCc3ccc(F)cc3)c2)nc2c1NC(=O)[C@H](C)N2C [Compound 6, (7S)-2-(((1-(4-fluorophenethyl)-1H-pyrazol-4-yl)methyl)amino)-4,7,8-trimethyl-7,8-dihydropteridin-6(5H)-one]	600 to 2000 nM	2000 to 10000 nM	≥ 3000 nM
Cc1nc(NCc2cnn(Cc3ccc(F)cc3)c2)nc2c1NC(=O)C1(CC1)N2 [Compound 222, 2′-(((1-(4-fluorobenzyl)-1H-pyrazol-4-yl)methyl)amino)-4′-methyl-5′,8′-dihydro-6′H-spiro[cyclopropane-1,7′-pteridin]-6′-one]	≥ 10000 nM	≥ 10000 nM	≥ 3000 nM
Cc1nc(N[C@H]2C[C@@H](Sc3ccc(F)cc3)C2)nc2c1N(C)C(=O)[C@H](C)N2C [Compound 305, (7S)-2-((cis-3-((4-fluorophenyl)thio)cyclobutyl)amino)-4,5,7,8-tetramethyl-7,8-dihydropteridin-6(5H)-one]	2000 to 10000 nM	≥ 10000 nM	≥ 3000 nM

The next lines start with results.

IC50 (HepG2 XBP1(u)-Luc cells)	SMILES	IC50 (HepG2 parental)	IC50 (Hek293 empty vector)
< 600 nM	Cc1nc(N[C@H]2C[C@H](Oc3ccnc(C(F)(F)F)c3)C2)nc2c1NC(=O)[C@H](C)N2C [Compound 335, (7S)-4,7,8-trimethyl-2-((trans-3-((2-(trifluoromethyl)pyridin-4-yl)oxy)cyclobutyl)amino)-7,8-dihydropteridin-6(5H)-one]	2000 to 10000 nM	≥ 3000 nM
600 to 2000 nM	Cc1nc(NCc2cnn(Cc3ccc(F)nc3)c2)nc2c1NC(=O)[C@H](C(C)C)N2C [Compound 384, (7S)-2-(((1-((6-fluoropyridin-3-yl)methyl)-1H-pyrazol-4-yl)methyl)amino)-7-isopropyl-4,8-dimethyl-7,8-dihydropteridin-6(5H)-one]	< 500 nM	≥ 3000 nM
2000 to 10000 nM	Cc1nc(N[C@H]2C[C@H](Oc3ccc(F)nc3)C2)nc2c1NC(=O)[C@H](C)N2C [Compound 357, (7S)-2-((trans-3-((6-fluoropyridin-3-yl)oxy)cyclobutyl)amino)-4,7,8-trimethyl-7,8-dihydropteridin-6(5H)-one]	2000 to 10000 nM	≥ 3000 nM
≥ 10000 nM	Cc1nc(N(C)Cc2cnn(Cc3ccc(C(F)(F)F)nc3)c2)nc2c1NC(=O)[C@H](C)N2C [Compound 403, (7S)-4,7,8-trimethyl-2-(methyl((1-((6-(trifluoromethyl)pyridin-3-yl)methyl)-1H-pyrazol-4-yl)methyl)amino)-7,8-dihydropteridin-6(5H)-one]	≥ 10000 nM	≥ 3000 nM
600 to 2000 nM	CC[C@H]1C(=O)Nc2cnc(NCc3cnn(Cc4ccc(C(F)(F)F)nc4)c3)nc2N1C [Compound 427, (7S)-7-ethyl-8-methyl-2-(((1-((6-(trifluoromethyl)pyridin-3-yl)methyl)-1H-pyrazol-4-yl)methyl)amino)-7,8-dihydropteridin-6(5H)-one]	≥ 10000 nM	≥ 3000 nM
< 600 nM	Cc1cc(F)ncc1Cn1cc(CNc2nc(C)c3c(n2)N(C)[C@@H](C(C)C)C(=O)N3)cn1 [Compound 423, (7S)-2-(((1-((6-fluoro-4-methylpyridin-3-yl)methyl)-1H-pyrazol-4-yl)methyl)amino)-7-isopropyl-4,8-dimethyl-7,8-dihydropteridin-6(5H)-one]	< 500 nM	≥ 3000 nM
2000 to 10000 nM	Cc1nc(NCc2cnn(Cc3ccc(C(F)(F)F)nc3[C@@H](C)O)c2)nc2c1NC(=O)[C@H](C)N2C (single isomer, unassigned) [Compound 420]	500 to 2000 nM	≥ 3000 nM
< 600 nM	Cc1nc(NCc2cn(Cc3ccc(C(F)(F)F)nc3)nc2Br)nc2c1NC(=O)[C@H](C)N2C [Compound 412, (S)-2-(((3-bromo-1-((6-(trifluoromethyl)pyridin-3-yl)methyl)-1H-pyrazol-4-yl)methyl)amino)-4,7,8-trimethyl-7,8-dihydropteridin-6(5H)-one]	2000 to 10000 nM	≥ 3000 nM
600 to 2000 nM	Cc1nc(NCc2cnn(Cc3ccc(C(F)(F)F)nc3)c2)nc2c1NC(=O)C1(CCC1)N2C [Compound 398, 4′,8′-dimethyl-2′-(((1-((6-(trifluoromethyl)pyridin-3-yl)methyl)-1H-pyrazol-4-yl)methyl)amino)-5′,8′-dihydro-6′H-spiro[cyclobutane-1,7′-pteridin]-6′-one]	500 to 2000 nM	≥ 3000 nM
